# Biological target: T1, Prostatic acid phosphatase (Homo sapiens, UniProt P15309)
# T1 sequence (P15309 whole entry): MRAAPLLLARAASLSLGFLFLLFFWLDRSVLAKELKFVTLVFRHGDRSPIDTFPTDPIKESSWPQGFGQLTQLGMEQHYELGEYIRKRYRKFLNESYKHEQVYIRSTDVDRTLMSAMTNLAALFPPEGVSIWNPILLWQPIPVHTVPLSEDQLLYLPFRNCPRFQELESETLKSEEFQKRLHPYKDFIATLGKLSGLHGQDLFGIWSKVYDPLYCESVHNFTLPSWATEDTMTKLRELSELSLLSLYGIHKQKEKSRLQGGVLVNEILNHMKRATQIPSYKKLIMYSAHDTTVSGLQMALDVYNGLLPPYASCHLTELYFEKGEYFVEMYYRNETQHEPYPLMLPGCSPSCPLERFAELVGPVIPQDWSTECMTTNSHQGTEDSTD
# Assay: Inhibition of human prostatic acid phosphatase was determined as inhibition of the hydrolysis of tyrosine phosphate
row,IC50,SMILES
1,> 500 µM,O=P(O)(O)C1c2ccccc2-c2ccccc21
2,14 µM,O=P(O)(O)C(CCc1ccccc1)c1ccccc1 (configuration not stated)
3,94 µM,O=P(O)(O)C1c2ccccc2CCc2ccccc21
4,88 µM,O=P(O)(O)Cc1cccc(C(F)(F)F)c1
5,142 µM,O=P(O)(O)C(c1ccccc1)c1ccccc1
6,22 µM,O=P(O)(O)C1c2ccccc2Oc2ccccc21

# The next lines start with the compound.
row,SMILES,IC50
1,O=P(O)(O)C(c1ccc(-c2ccccc2)cc1)c1ccc(-c2ccccc2)cc1,70 µM
2,O=P(O)(O)C1c2ccccc2Sc2ccccc21,> 100 µM
3,O=P(O)(O)Cc1ccccc1 [BENZYLPHOSPHONIC ACID],> 500 µM
4,O=P(O)(O)C(Cc1ccc(-c2ccccc2)cc1)c1ccccc1 (configuration not stated),16 µM
5,O=P(O)(O)C(c1ccccc1)c1ccc(-c2ccccc2)cc1 (configuration not stated),67 µM
6,O=P(O)(O)C1c2ccccc2C=Cc2ccccc21,> 100 µM

# Reference: ChEMBL document CHEMBL1128966, “Benzylphosphonic acid inhibitors of human prostatic acid phosphatase” (Bioorg Med Chem Lett, 1996)
